Source: patent publication US20090215778A1, “Alpha-substituted Arylmethyl Piperazine Pyrazolo [1,5-alpha]Pyrimidine Amide Derivatives” (priority 2007, published 2009)

Columns and labels:
[1] = test system: HIV-1, NL4-3 strain; test: Virus infection assay (virus entry and single-cycle infection); assay type: cell-based; details: Human immunodeficiency virus 1, NL43, TZM-b1, read-out: Nl4
In short: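 TZM-b1 cells (CD4, CXCR4, CCR5; LTR-driven lacZ/luciferase reporters) were infected with HIV-1 NL4-3 (MOI 0.01) with 80 μg/mL DEAE-dextran in the presence of test compound, 4 h at 37 °C before adding complete medium. Infection was quantified one day post-infection as chemiluminescent β-galactosidase signal.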

[2] = target: T1, HIV Env six-helix bundle (6HB) structure (Human immunodeficiency virus type 1 group M subtype B, UniProt P04579); test: Six-helix bundle (6HB) assay; assay type: cell-based, HIV-1 (strain RF)
T1 construct: H9 cells chronically infected with HIV-1 (H9/HIV-1RF); endogenous in cells; host or cells: H9 cells chronically infected with HIV-1 strain RF (Env is made from the virus in the infected cells, not by transfection)
T1 sequence (P04579 32-519): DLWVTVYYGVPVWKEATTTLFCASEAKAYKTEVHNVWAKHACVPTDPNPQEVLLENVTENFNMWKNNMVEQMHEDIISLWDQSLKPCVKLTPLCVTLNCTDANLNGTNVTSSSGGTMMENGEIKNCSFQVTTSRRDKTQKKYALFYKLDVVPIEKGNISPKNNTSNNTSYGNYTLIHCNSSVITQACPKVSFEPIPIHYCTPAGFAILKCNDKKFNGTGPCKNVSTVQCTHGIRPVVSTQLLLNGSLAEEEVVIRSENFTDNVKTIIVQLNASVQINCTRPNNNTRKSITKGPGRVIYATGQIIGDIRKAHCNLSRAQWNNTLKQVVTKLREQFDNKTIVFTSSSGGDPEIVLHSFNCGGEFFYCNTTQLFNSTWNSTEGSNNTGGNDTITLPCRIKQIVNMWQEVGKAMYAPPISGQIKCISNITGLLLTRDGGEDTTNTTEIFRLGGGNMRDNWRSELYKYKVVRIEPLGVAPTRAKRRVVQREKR
T1 sequence (P04579 520-865): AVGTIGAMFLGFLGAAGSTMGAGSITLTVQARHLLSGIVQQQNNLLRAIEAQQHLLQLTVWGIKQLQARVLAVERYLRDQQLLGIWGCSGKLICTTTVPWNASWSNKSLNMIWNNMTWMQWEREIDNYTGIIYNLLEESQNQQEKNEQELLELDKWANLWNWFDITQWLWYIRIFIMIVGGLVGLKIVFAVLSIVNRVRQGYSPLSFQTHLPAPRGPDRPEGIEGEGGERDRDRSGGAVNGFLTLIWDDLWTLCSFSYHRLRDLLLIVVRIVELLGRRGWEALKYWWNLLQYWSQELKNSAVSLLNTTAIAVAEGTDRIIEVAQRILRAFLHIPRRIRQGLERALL
In short: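 Chronically HIV-1 RF-infected H9 cells (12-40 days post-infection), 2.5×10^5 per well, were preincubated with compound for 30 min at 37 °C. sCD4 at 1 μg/mL was added for 1 h to trigger Env changes. 6HB-specific rabbit serum (1 h, 37 °C) was then added, followed by PE anti-rabbit (45 min, 4 °C), with flow cytometric fluorescence read-out.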

Structure (SMILES) | IC50 [1] | IC50 [2]
COc1ccc(-c2nc3c(C(=O)N4CCN(C(CO)c5cc(F)ccc5F)C[C@H]4C)cnn3c(C(F)(F)F)c2C)cc1 (stereo partly drawn) [methanone, [(2R)-4-[1-(2,5-difluorophenyl)-2-hydroxyethyl]-2-methyl-1-piperazinyl][5-(4-methoxyphenyl)-6-methyl-7-(trifluoromethyl)pyrazolo[1,5-α]pyrimidin-3-yl]-] | < 1 µM | < 1 µM
COc1ccc(-c2nc3c(C(=O)N4CCN(C(CO)c5cccnc5OC)C[C@H]4C)cnn3c(C(F)(F)F)c2C)cc1 (stereo partly drawn) [methanone, [(2R)-4-[2-hydroxy-1-(2-methoxy-3-pyridinyl)ethyl]-2-methyl-1-piperazinyl][5-(4-methoxyphenyl)-6-methyl-7-(trifluoromethyl)pyrazolo[1,5-α]pyrimidin-3-yl]-] | < 1 µM | < 1 µM
COc1ccc(-c2nc3c(C(=O)N4CCN([C@H](CO)c5ccc(C(C)=O)s5)C[C@H]4C)cnn3c(C(F)(F)F)c2C)cc1 [ethanone, 1-[5-[(1R)-2-hydroxy-1-[(3R)-4-[[5-(4-methoxyphenyl)-6-methyl-7-(trifluoromethyl)pyrazolo[1,5-α]pyrimidin-3-yl]carbonyl]-3-methyl-1-piperazinyl]ethyl]-2-thienyl]-] | 1.1 to 10 µM | < 1 µM
COc1ccc(-c2nc3c(C(=O)N4CCN(C(CO)c5cc(F)ccc5OC)C[C@H]4C)cnn3c(C(F)(F)F)c2C)cc1 (stereo partly drawn) [methanone, [(2R)-4-[1-(5-fluoro-2-methoxyphenyl)-2-hydroxyethyl]-2-methyl-1-piperazinyl][5-(4-methoxyphenyl)-6-methyl-7-(trifluoromethyl)pyrazolo[1,5-α]pyrimidin-3-yl]-] | < 1 µM | < 1 µM
COc1ccc(-c2nc3c(C(=O)N4CCN(C(C(=O)N(C)C)c5ccccc5)C[C@H]4C)cnn3c(C(F)(F)F)c2C)cc1 (stereo partly drawn) [1-piperazineacetamide, 4-[[5-(4-methoxyphenyl)-6-methyl-7-(trifluoromethyl)pyrazolo[1,5-α]pyrimidin-3-yl]carbonyl]-N,N,3-trimethyl-α-phenyl-, (3R)-] | < 1 µM | < 1 µM
COc1ccc(-c2nc3c(C(=O)N4CCN(C(CO)c5c(F)cccc5F)C[C@H]4C)cnn3c(C(F)(F)F)c2C)cc1 (stereo partly drawn) [methanone, [(2R)-4-[1-(2,6-difluorophenyl)-2-hydroxyethyl]-2-methyl-1-piperazinyl][5-(4-methoxyphenyl)-6-methyl-7-(trifluoromethyl)pyrazolo[1,5-α]pyrimidin-3-yl]-] | < 1 µM | < 1 µM
COc1ccc(-c2nc3c(C(=O)N4CCN([C@@H](C)c5ccncc5)C[C@H]4C)cnn3c(C(F)(F)F)c2C)cc1 [methanone, [5-(4-methoxyphenyl)-6-methyl-7-(trifluoromethyl)pyrazolo[1,5-α]pyrimidin-3-yl][(2R)-2-methyl-4-[(1S)-1-(4-pyridinyl)ethyl]-1-piperazinyl]-] | < 1 µM | < 1 µM
COc1ccc(-c2nc3c(C(=O)N4CCN(C(CO)c5ccccc5NC(C)=O)C[C@H]4C)cnn3c(C(F)(F)F)c2C)cc1 (stereo partly drawn) [acetamide, N-[2-[2-hydroxy-1-[(3R)-4-[[5-(4-methoxyphenyl)-6-methyl-7-(trifluoromethyl)pyrazolo[1,5-α]pyrimidin-3-yl]carbonyl]-3-methyl-1-piperazinyl]ethyl]phenyl]-] | > 10.1 µM | > 10.1 µM
COc1ccc(-c2nc3c(C(=O)N4CCN([C@@H](C)c5cc(F)cc(F)c5F)C[C@H]4C)cnn3c(C(F)(F)F)c2C)cc1 [methanone, [5-(4-methoxyphenyl)-6-methyl-7-(trifluoromethyl)pyrazolo[1,5-α]pyrimidin-3-yl][(2R)-2-methyl-4-[(1S)-1-(2,3,5-trifluorophenyl)ethyl]-1-piperazinyl]-] | < 1 µM | < 1 µM
COc1ccc(-c2nc3c(C(=O)N4CCN(C(CO)c5cccc(F)c5)C[C@H]4C)cnn3c(C(F)(F)F)c2C)cc1 (stereo partly drawn) [methanone, [(2R)-4-[1-(3-fluorophenyl)-2-hydroxyethyl]-2-methyl-1-piperazinyl][5-(4-methoxyphenyl)-6-methyl-7-(trifluoromethyl)pyrazolo[1,5-α]pyrimidin-3-yl]-] | < 1 µM | < 1 µM
COc1ccc(-c2nc3c(C(=O)N4CCN(C(CO)c5ccccc5C(F)(F)F)C[C@H]4C)cnn3c(C(F)(F)F)c2C)cc1 (stereo partly drawn) [methanone, [(2R)-4-[2-hydroxy-1-[2-(trifluoromethyl)phenyl]ethyl]-2-methyl-1-piperazinyl][5-(4-methoxyphenyl)-6-methyl-7-(trifluoromethyl)pyrazolo[1,5-α]pyrimidin-3-yl]-] | < 1 µM | < 1 µM
COc1ccc(-c2nc3c(C(=O)N4CCN([C@@H](C)c5ccc(F)c(F)c5)C[C@H]4C)cnn3c(C(F)(F)F)c2C)cc1 [methanone, [(2R)-4-[(1S)-1-(3,4-difluorophenyl)ethyl]-2-methyl-1-piperazinyl][5-(4-methoxyphenyl)-6-methyl-7-(trifluoromethyl)pyrazolo[1,5-α]pyrimidin-3-yl]-] | < 1 µM | < 1 µM
COc1ccc(-c2nc3c(C(=O)N4CCN(C(CO)c5ccc(C(=O)O)s5)C[C@H]4C)cnn3c(C(F)(F)F)c2C)cc1 (stereo partly drawn) [2-thiophenecarboxylic acid, 5-[2-hydroxy-1-[(3R)-4-[[5-(4-methoxyphenyl)-6-methyl-7-(trifluoromethyl)pyrazolo[1,5-α]pyrimidin-3-yl]carbonyl]-3-methyl-1-piperazinyl]ethyl]-] | > 10.1 µM | 1.1 to 10 µM
COc1ccc(-c2nc3c(C(=O)N4CCN(C(CO)c5cccc(C(N)=O)c5)C[C@H]4C)cnn3c(C(F)(F)F)c2C)cc1 (stereo partly drawn) [benzamide, 3-[2-hydroxy-1-[(3R)-4-[[5-(4-methoxyphenyl)-6-methyl-7-(trifluoromethyl)pyrazolo[1,5-α]pyrimidin-3-yl]carbonyl]-3-methyl-1-piperazinyl]ethyl]-] | < 1 µM | < 1 µM
COc1ccc(-c2nc3c(C(=O)N4CCN(C(CO)c5cccc(OC)c5)C[C@H]4C)cnn3c(C(F)(F)F)c2C)cc1 (stereo partly drawn) [methanone, [(2R)-4-[2-hydroxy-1-(3-methoxyphenyl)ethyl]-2-methyl-1-piperazinyl][5-(4-methoxyphenyl)-6-methyl-7-(trifluoromethyl)pyrazolo[1,5-α]pyrimidin-3-yl]-] | < 1 µM | < 1 µM
